Assay results taken from paper PMC13270519, “Cytochrome P450-Mediated Metabolism of Antimycobacterial Nα‑Aroyl‑N‑aryl-phenylalanine Amides” (ACS Infectious Diseases, 2026).

Assay: Metabolic stability in mouse liver microsomes (t1/2)
Assay type: in vitro ADME
Conditions: NADPH, 37 °C
Protocol: Microsomal incubations were carried out in 96-well plates in 3 aliquots of 30 μL each (one for each time point). Liver microsomal incubation medium comprised phosphate buffer (100 mM, pH 7.4), MgCl2 (3 mM), NADPH (3 mM), glucose-6-phosphate (5.3 mM), and glucose-6-phosphate dehydrogenase (0.67 units/mL) with 0.42 mg of liver microsomal protein per mL. In the control reactions, the NADPH-cofactor system was substituted with phosphate buffer. Test compounds (2 μM, final solvent concentration 1.6%) were incubated with microsomes at 37 °C, shaking at 100 rpm. Three time points over 7 min were analyzed. The reactions were stopped by adding 5 volumes of methanol with internal standard to incubation aliquots followed by protein sedimentation by centrifuging at 6,000 rpm for 20 min. Each reaction was performed in duplicate. Supernatants were analyzed using the HPLC system coupled with a tandem mass spectrometer and high-resolution mass spectrometer.
The incubation was stopped after defined time points by precipitation of aliquots of enzymes with 2 volumes of cold internal standard solution (15 nM diphenhydramine in 10% methanol/acetonitrile). […] The remaining test compound at the different time points was analyzed by HPLC-MS/MS (Vanquish Flex coupled to a TSQ Altis Plus, Thermo Fisher, Dreieich, Germany) and used to determine half-life (t 1/2).

| SMILES | Mouse liver microsomes t1/2 [min] |
| --- | --- |
| O=C(N[C@H](Cc1ccccc1)C(=O)Nc1ccccc1N1CCS(=O)(=O)CC1)c1ccccc1F [AAP-SO2] | 1.8 |
| O=C(N[C@H](Cc1ccccc1)C(=O)Nc1ccccc1N1CCOCC1)c1cccs1 [MMV688845] | 0.9 |
